In US9302999B2, “Substituted triazoles as herbicides” (E. I. DU PONT DE NEMOURS AND COMPANY, priority 2012, dated 2016):

How the values were obtained:
Format in all cases: in vivo
[1] = test system: galium (catchweed bedstraw, Galium aparine); experiment: Test C pre-/postemergence: galium
How it was run: (§1)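 Visual injury scored 0–100 (100 = complete control) against untreated controls after 13–15 greenhouse days. Surfactant-containing solvent formulations applied either to soil after sowing (loam/sand) or over 1- to 4-leaf plants, 2–18 cm tall.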

[2] = test system: barnyardgrass (Echinochloa crus-galli); experiment: Test A pre-/postemergence: barnyardgrass; conditions: for Barnyardgrass plant response rating: visual rating on 0 to 100 scale (0 no effect, 100 complete control), approximately ten days
How it was run: (§2)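 Each species received preemergence soil-directed spraying and, at the same time, postemergence treatment of seedlings 2–10 cm tall. Formulation: non-phytotoxic solvent mixture including surfactant. Response assessed visually about ten days on, relative to untreated controls, 0–100 scale.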

kochia (Kochia scoparia) = experiment: Test C pre-/postemergence: kochia; conditions: Postemergence
How it was run: as §1

[3] = test system: ragweed (common ragweed, Ambrosia elation); experiment: Test C pre-/postemergence: ragweed
How it was run: as §1

rice (Oryza sativa) = experiment: Test B flooded paddy: rice; conditions: Flood; 250 g ai/ha; applied to paddy water at 2-leaf stage; visually evaluated after 13 to 15 days
How it was run: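 At two leaves, seedlings received the test compound via the paddy water, pots having been flooded 3 cm over the soil surface and kept so. Greenhouse-held for 13 to 15 days, then judged by eye against controls on a scale running 0 (no effect) to 100 (complete control).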

corn (Zea mays) = experiment: Test A pre-/postemergence: corn; conditions: for Corn plant response rating: visual rating on 0 to 100 scale (0 no effect, 100 complete control), approximately ten days
How it was run: as §2

[4] = test system: lambsquarters (Chenopodium album); experiment: Test C pre-/postemergence: lambsquarters
How it was run: as §1

[5] = test system: johnsongrass (Sorghum halepense); experiment: Test C pre-/postemergence: johnsongrass
How it was run: as §1

[6] = test system: morningglory (Ipomoea spp.); experiment: Test A pre-/postemergence: morningglory; conditions: for Morningglory plant response rating: visual rating on 0 to 100 scale (0 no effect, 100 complete control), approximately ten days
How it was run: as §2

[7] = test system: velvetleaf (Abutilon theophrasti); experiment: Test C pre-/postemergence: velvetleaf
How it was run: as §1

[8] = Postemergence, 31 g ai/ha, scale 0 to 100 (0 no effect, 100 complete control)
[9] = Postemergence, 62 g ai/ha, scale 0 to 100 (0 no effect, 100 complete control)
[10] = Postemergence, 125 g ai/ha, scale 0 to 100, 0 no effect, 100 complete control
[11] = Postemergence, 250 g ai/ha, scale 0 to 100
[12] = Preemergence, 31 g ai/ha, scale of 0 to 100, 0 is no effect, 100 is complete control
[13] = Preemergence, 62 g ai/ha, scale of 0 to 100, 0 is no effect, 100 is complete control
[14] = Preemergence, 125 g ai/ha, scale 0 to 100, 0 no effect, 100 complete control
[15] = Preemergence, 250 g ai/ha, scale 0 to 100, 0 no effect, 100 complete control
[16] = Postemergence, 125 g ai/ha, 0 to 100 scale, 0 is no effect, 100 is complete control
[17] = Preemergence, 125 g ai/ha, 0 to 100 scale where 0 is no effect and 100 is complete control
[18] = Preemergence, 500 g ai/ha, 0 to 100 scale (0 no effect, 100 complete control)
[19] = 31 g ai/ha, scale 0 to 100 (0 no effect, 100 complete control)
[20] = 62 g ai/ha, scale 0 to 100 (0 no effect, 100 complete control)
[21] = 125 g ai/ha, scale 0 to 100, 0 no effect, 100 complete control

CCc1nn(-c2ccc(F)cc2)nc1Cc1ccnc(C(F)(F)F)c1 [Compound 154]
Plant response rating, Galium [1, 8]: 45
Plant response rating, Galium [1, 9]: 60
Plant response rating, Galium [1, 10]: 70
Plant response rating, Galium [1, 11]: 75
Plant response rating, Galium [1, 12]: 5
Plant response rating, Galium [1, 13]: 85
Plant response rating, Galium [1, 14]: 85
Plant response rating, Galium [1, 15]: 100
Plant response rating, Barnyardgrass [2, 16]: 90
Barnyardgrass plant response rating ([2]; Postemergence, 500 g ai/ha): 90
Plant response rating, Barnyardgrass [2, 17]: 100
Plant response rating, Barnyardgrass [2, 18]: 100
Plant response rating, Kochia (kochia (Kochia scoparia); [19]): 90
Plant response rating, Kochia (kochia (Kochia scoparia); [20]): 90
Plant response rating, Kochia (kochia (Kochia scoparia); [21]): 90
Plant response rating, Kochia (kochia (Kochia scoparia); 250 g ai/ha, scale 0 to 100): 95
Plant response rating, Ragweed [3, 8]: 30
Plant response rating, Ragweed [3, 9]: 30
Plant response rating, Ragweed [3, 10]: 30
Plant response rating, Ragweed [3, 11]: 40
Plant response rating, Ragweed [3, 12]: 0
Plant response rating, Ragweed [3, 13]: 0
Plant response rating, Ragweed [3, 14]: 50
Plant response rating, Ragweed [3, 15]: 70
Plant response rating, Rice (0 to 100 scale, 0 is no effect, 100 is complete control) (rice (Oryza sativa)): 45
Plant response rating, Corn (corn (Zea mays); [16]): 30
Corn plant response rating (corn (Zea mays); Postemergence, 500 g ai/ha): 80
Plant response rating, Corn (corn (Zea mays); [17]): 20
Plant response rating, Corn (corn (Zea mays); [18]): 70
Plant response rating, Lambsquarters [4, 8]: 75
Plant response rating, Lambsquarters [4, 9]: 98
Plant response rating, Lambsquarters [4, 10]: 98
Plant response rating, Lambsquarters [4, 11]: 98
Plant response rating, Lambsquarters [4, 12]: 100
Plant response rating, Lambsquarters [4, 13]: 100
Plant response rating, Lambsquarters [4, 14]: 100
Plant response rating, Lambsquarters [4, 15]: 100
Plant response rating, Johnsongrass [5, 8]: 10
Plant response rating, Johnsongrass [5, 9]: 30
Plant response rating, Johnsongrass [5, 10]: 65
Plant response rating, Johnsongrass [5, 11]: 85
Plant response rating, Johnsongrass [5, 12]: 40
Plant response rating, Johnsongrass [5, 13]: 40
Plant response rating, Johnsongrass [5, 14]: 90
Plant response rating, Johnsongrass [5, 15]: 95
Plant response rating, Morningglory [6, 16]: 80
Morningglory plant response rating ([6]; Postemergence, 500 g ai/ha): 100
Plant response rating, Morningglory [6, 17]: 20
Plant response rating, Morningglory [6, 18]: 80
Plant response rating, Velvetleaf [7, 8]: 35
Plant response rating, Velvetleaf [7, 9]: 45
Plant response rating, Velvetleaf [7, 10]: 55
Plant response rating, Velvetleaf [7, 11]: 65
Plant response rating, Velvetleaf [7, 12]: 5
Plant response rating, Velvetleaf [7, 13]: 45
Plant response rating, Velvetleaf [7, 14]: 90
Plant response rating, Velvetleaf [7, 15]: 100

CCc1nn(-c2ccc(C(F)(F)F)cc2)nc1Cc1ccnc(C(F)(F)F)c1 [Compound 155]
Plant response rating, Galium [1, 8]: 70
Plant response rating, Galium [1, 9]: 75
Plant response rating, Galium [1, 10]: 80
Plant response rating, Galium [1, 11]: 95
Plant response rating, Galium [1, 12]: 98
Plant response rating, Galium [1, 13]: 100
Plant response rating, Galium [1, 14]: 100
Plant response rating, Galium [1, 15]: 100
Plant response rating, Barnyardgrass [2, 16]: 90
Barnyardgrass plant response rating ([2]; Postemergence, 500 g ai/ha): 90
Plant response rating, Barnyardgrass [2, 17]: 100
Plant response rating, Barnyardgrass [2, 18]: 100
Plant response rating, Kochia (kochia (Kochia scoparia); [19]): 90
Plant response rating, Kochia (kochia (Kochia scoparia); [20]): 90
Plant response rating, Kochia (kochia (Kochia scoparia); [21]): 95
Plant response rating, Kochia (kochia (Kochia scoparia); 250 g ai/ha, scale 0 to 100): 95
Plant response rating, Ragweed [3, 8]: 80
Plant response rating, Ragweed [3, 10]: 85
Plant response rating, Ragweed [3, 11]: 85
Plant response rating, Ragweed [3, 12]: 20
Plant response rating, Ragweed [3, 13]: 40
Plant response rating, Ragweed [3, 14]: 85
Plant response rating, Ragweed [3, 15]: 95
Plant response rating, Rice (0 to 100 scale, 0 is no effect, 100 is complete control) (rice (Oryza sativa)): 50
Plant response rating, Corn (corn (Zea mays); [16]): 40
Corn plant response rating (corn (Zea mays); Postemergence, 500 g ai/ha): 70
Plant response rating, Corn (corn (Zea mays); [17]): 60
Plant response rating, Corn (corn (Zea mays); [18]): 80
Plant response rating, Lambsquarters [4, 8]: 80
Plant response rating, Lambsquarters [4, 9]: 95
Plant response rating, Lambsquarters [4, 10]: 98
Plant response rating, Lambsquarters [4, 11]: 98
Plant response rating, Lambsquarters [4, 12]: 90
Plant response rating, Lambsquarters [4, 13]: 100
Plant response rating, Lambsquarters [4, 14]: 100
Plant response rating, Lambsquarters [4, 15]: 100
Plant response rating, Johnsongrass [5, 8]: 20
Plant response rating, Johnsongrass [5, 9]: 80
Plant response rating, Johnsongrass [5, 10]: 98
Plant response rating, Johnsongrass [5, 11]: 98
Plant response rating, Johnsongrass [5, 12]: 80
Plant response rating, Johnsongrass [5, 13]: 90
Plant response rating, Johnsongrass [5, 14]: 90
Plant response rating, Johnsongrass [5, 15]: 95
Plant response rating, Morningglory [6, 16]: 90
Morningglory plant response rating ([6]; Postemergence, 500 g ai/ha): 100
Plant response rating, Morningglory [6, 17]: 80
Plant response rating, Morningglory [6, 18]: 90
Plant response rating, Velvetleaf [7, 8]: 50
Plant response rating, Velvetleaf [7, 9]: 60
Plant response rating, Velvetleaf [7, 10]: 75
Plant response rating, Velvetleaf [7, 11]: 80
Plant response rating, Velvetleaf [7, 12]: 30
Plant response rating, Velvetleaf [7, 13]: 80
Plant response rating, Velvetleaf [7, 14]: 85
Plant response rating, Velvetleaf [7, 15]: 100
